pIC50: −log10 of the molar value.
Key:
[1] = biological target: T1, Coagulation factor X (Homo sapiens, UniProt P00742); experiment: Tested in vitro for the inhibitory activity against Coagulation factor Xa
[2] = Bioavailability in rat was reported at the dose of 6 mg/kg in 25% PEG-300; type: ADME, organism-based; conditions: in vivo
[3] = Bioavailability in rat; type: ADME, organism-based; conditions: in vivo
[4] = biological target: Vitamin K-dependent protein C (Homo sapiens, UniProt P04070); experiment: Tested in vitro for the inhibitory activity against activated protein C (APC)
[5] = biological target: Kallikrein-1 (Homo sapiens, UniProt P06870); experiment: Tested in vitro for the inhibitory activity against kallikrein
[6] = biological target: Plasminogen (Homo sapiens, UniProt P00747); experiment: Tested in vitro for the inhibitory activity against plasmin
[7] = test system: Oryctolagus cuniculus; experiment: Tested for inhibition of thrombosis in rabbit deep vein model after intravenous administration at dosage of 2 mg/kg; type: functional
[8] = biological target: Tissue-type plasminogen activator (Homo sapiens, UniProt P00750); experiment: Tested in vitro for the inhibitory activity against Tissue plasminogen activator (tissue plasminogen activator)
[9] = biological target: Prothrombin (Homo sapiens, UniProt P00734); experiment: Tested in vitro for the inhibitory activity against thrombin
[10] = biological target: Serine protease 1 (Homo sapiens, UniProt P07477); experiment: Tested in vitro for the inhibitory activity against trypsin
[11] = biological target: T1, Coagulation factor X; experiment: Tested in vitro for the inhibitory activity against Coagulation factor X

T1 sequence (P00742 41-179 limits assumed): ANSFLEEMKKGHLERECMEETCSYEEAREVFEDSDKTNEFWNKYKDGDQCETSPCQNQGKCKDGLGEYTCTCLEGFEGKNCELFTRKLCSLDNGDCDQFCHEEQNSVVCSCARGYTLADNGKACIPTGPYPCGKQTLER
T1 sequence (P00742 235-488 limits assumed): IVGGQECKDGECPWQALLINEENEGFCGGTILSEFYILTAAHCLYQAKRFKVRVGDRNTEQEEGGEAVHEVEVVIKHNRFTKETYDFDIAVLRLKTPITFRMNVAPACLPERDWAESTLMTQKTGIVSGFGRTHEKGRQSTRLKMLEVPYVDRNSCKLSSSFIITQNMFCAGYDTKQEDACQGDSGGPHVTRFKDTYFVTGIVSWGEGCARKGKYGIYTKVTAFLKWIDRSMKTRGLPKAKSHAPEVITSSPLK
Tissue-type plasminogen activator, sequence (P00750 whole entry): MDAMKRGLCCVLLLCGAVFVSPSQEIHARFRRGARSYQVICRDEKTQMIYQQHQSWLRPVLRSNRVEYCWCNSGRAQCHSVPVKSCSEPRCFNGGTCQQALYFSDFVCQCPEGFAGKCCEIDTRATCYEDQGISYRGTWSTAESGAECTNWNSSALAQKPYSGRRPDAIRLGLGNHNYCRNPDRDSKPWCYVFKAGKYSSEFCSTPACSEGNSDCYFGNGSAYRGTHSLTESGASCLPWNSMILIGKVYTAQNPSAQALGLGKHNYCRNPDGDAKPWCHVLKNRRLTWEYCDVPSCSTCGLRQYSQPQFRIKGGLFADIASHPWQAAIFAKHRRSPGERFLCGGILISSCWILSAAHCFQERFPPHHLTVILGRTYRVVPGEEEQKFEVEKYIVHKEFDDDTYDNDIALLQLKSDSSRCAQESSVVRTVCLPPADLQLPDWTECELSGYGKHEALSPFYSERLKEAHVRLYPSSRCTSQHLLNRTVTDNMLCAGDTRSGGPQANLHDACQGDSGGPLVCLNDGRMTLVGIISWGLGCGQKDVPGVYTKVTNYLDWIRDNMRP
Plasminogen, sequence (P00747 97-580 limits assumed): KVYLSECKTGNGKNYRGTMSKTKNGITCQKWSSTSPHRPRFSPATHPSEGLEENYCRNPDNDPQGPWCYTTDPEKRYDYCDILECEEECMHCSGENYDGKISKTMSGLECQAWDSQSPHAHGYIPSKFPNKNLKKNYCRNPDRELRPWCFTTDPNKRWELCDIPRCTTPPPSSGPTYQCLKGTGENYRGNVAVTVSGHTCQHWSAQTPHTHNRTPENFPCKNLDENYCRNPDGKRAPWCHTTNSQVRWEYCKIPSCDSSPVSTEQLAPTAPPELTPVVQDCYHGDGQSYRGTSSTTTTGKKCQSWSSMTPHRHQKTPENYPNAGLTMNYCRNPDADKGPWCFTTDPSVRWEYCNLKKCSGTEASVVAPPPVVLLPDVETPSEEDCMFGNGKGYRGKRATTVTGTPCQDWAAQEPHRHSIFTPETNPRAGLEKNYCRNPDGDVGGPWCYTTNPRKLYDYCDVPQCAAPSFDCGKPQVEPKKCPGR
Plasminogen, sequence (P00747 581-810 limits assumed): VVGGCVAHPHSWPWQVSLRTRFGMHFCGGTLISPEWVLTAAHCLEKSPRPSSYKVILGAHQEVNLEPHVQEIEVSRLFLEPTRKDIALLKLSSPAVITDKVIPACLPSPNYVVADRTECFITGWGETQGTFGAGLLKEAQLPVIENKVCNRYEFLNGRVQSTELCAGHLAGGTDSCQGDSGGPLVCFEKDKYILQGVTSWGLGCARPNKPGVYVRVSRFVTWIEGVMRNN
Serine protease 1, sequence (P07477 whole entry): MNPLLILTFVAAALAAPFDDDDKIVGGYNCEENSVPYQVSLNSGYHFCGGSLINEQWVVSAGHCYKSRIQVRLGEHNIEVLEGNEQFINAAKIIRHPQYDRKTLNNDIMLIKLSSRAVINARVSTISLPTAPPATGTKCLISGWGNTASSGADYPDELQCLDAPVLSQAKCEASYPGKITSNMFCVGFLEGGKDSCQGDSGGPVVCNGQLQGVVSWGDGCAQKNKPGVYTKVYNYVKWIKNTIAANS
Vitamin K-dependent protein C, sequence (P04070 43-197 limits assumed): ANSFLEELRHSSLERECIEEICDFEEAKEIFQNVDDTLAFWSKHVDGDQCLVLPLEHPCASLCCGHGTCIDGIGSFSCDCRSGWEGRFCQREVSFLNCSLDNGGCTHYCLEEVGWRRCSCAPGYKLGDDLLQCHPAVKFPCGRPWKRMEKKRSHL
Vitamin K-dependent protein C, sequence (P04070 212-461 limits assumed): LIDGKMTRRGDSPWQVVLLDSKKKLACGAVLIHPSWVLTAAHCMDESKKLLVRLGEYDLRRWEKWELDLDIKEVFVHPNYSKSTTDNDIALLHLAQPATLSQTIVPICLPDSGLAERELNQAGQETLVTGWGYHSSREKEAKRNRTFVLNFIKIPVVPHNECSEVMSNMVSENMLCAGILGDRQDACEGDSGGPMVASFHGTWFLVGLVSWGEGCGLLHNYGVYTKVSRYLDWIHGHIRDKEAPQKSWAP
Kallikrein-1, sequence (P06870 whole entry): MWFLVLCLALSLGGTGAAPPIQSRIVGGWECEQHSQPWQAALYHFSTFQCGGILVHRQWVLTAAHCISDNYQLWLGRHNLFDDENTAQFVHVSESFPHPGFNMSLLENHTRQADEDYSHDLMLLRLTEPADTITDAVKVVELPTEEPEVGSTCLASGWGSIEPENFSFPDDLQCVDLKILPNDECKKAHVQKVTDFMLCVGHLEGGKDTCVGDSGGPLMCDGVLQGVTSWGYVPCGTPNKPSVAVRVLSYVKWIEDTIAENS

pIC50 [1]	Structure (SMILES)	also measured
8.74	CS(=O)(=O)c1ccc(Oc2cccc(C(=N)N)c2)c(NC(=O)c2ccc(-c3ccccc3S(N)(=O)=O)cc2)c1	–
8.80	COc1ccc(NC(=O)c2ccc(-c3ccccc3S(N)(=O)=O)cc2)c(Oc2cccc(C(=N)N)c2)c1	–
8.68	N=C(N)c1cccc(Oc2cc(Br)ccc2NC(=O)c2ccc(-c3ccccc3S(N)(=O)=O)cc2)c1	–
8.11	CC(=O)Nc1ccc(Oc2cccc(C(=N)N)c2)c(C(=O)Nc2ccc(-c3ccccc3S(N)(=O)=O)cc2)c1	–
7.66	Nc1nccc2ccc(OCCN3Cc4cc(-c5ccccc5S(N)(=O)=O)ccc4C3=O)cc12	bioavailability [2]: < 5%
8.92	N=C(N)c1cccc(Oc2cc(Br)ccc2C(=O)Nc2ccc(-c3ccccc3S(N)(=O)=O)cc2)c1	–
8.32	N=C(N)c1cccc(Oc2cc([N+](=O)[O-])ccc2C(=O)Nc2ccc(-c3ccccc3S(N)(=O)=O)cc2)c1	bioavailability [3]: 0.3%
8.60	N=C(N)c1cccc(Oc2ccc(C(F)(F)F)cc2NC(=O)c2ccc(-c3ccccc3S(N)(=O)=O)cc2)c1	–
8.14	N=C(N)c1cccc(Oc2ccccc2C(=O)Nc2ccc(-c3ccccc3S(N)(=O)=O)cc2)c1	–
7.72	N=C(N)c1cccc(Oc2cc(N)ccc2C(=O)Nc2ccc(-c3ccccc3S(N)(=O)=O)cc2)c1	–
8.80	N=C(N)c1cccc(Oc2cc(Cl)ccc2NC(=O)c2ccc(-c3ccccc3S(N)(=O)=O)cc2)c1	–
6.21	Nc1nccc2ccc(OCC(c3ccccc3)N3Cc4cc(-c5ccccc5S(N)(=O)=O)ccc4C3=O)cc12 (stereo not given)	–
8.25	N=C(N)c1cccc(OCC(Cc2ccccc2)NC(=O)c2ccc(-c3ccccc3S(N)(=O)=O)cc2)c1 (stereo not given)	–
7.89	COC(=O)CN(CCOc1cccc(C(=N)N)c1)C(=O)c1ccc(-c2ccccc2S(N)(=O)=O)cc1	–
5.74	Nc1nccc2ccc(Oc3ccc(C(F)(F)F)cc3NC(=O)c3ccc(-c4ccccc4S(N)(=O)=O)cc3)cc12	–

The remaining lines, values behind:

Structure (SMILES)	pIC50 [1]	also measured
N=C(N)c1cccc(OCCN2Cc3cc(-c4ccccc4S(N)(=O)=O)ccc3C2=O)c1	8.44	–
N=C(N)c1cccc(Oc2ccc(N)cc2C(=O)Nc2ccc(-c3ccccc3S(N)(=O)=O)cc2)c1	7.92	–
CC(COc1ccc2ccnc(N)c2c1)N1Cc2cc(-c3ccccc3S(N)(=O)=O)ccc2C1=O (stereo not given)	7.60	–
N=C(N)c1cccc(OCCN(Cc2ccoc2)C(=O)c2ccc(-c3ccccc3S(N)(=O)=O)cc2)c1	8.11	–
CN(C)c1ccc(Oc2cccc(C(=N)N)c2)c(C(=O)Nc2ccc(-c3ccccc3S(N)(=O)=O)cc2)c1	8.00	–
N=C(N)c1cccc(Oc2ccc(Br)cc2C(=O)Nc2ccc(-c3ccccc3S(N)(=O)=O)cc2)c1	8.36	–
N=C(N)c1cccc(Oc2cc(O)ccc2NC(=O)c2ccc(-c3ccccc3S(N)(=O)=O)cc2)c1	8.41	–
Cc1ccc(NC(=O)c2ccc(-c3ccccc3S(N)(=O)=O)cc2)c(Oc2cccc(C(=N)N)c2)c1	8.00	–
N=C(N)c1cccc(Oc2cc(Cl)ccc2C(=O)Nc2ccc(-c3ccccc3S(N)(=O)=O)cc2)c1	8.82	–
N=C(N)c1cccc(OCC(NC(=O)c2ccc(-c3ccccc3S(N)(=O)=O)cc2)c2ccccc2)c1 (stereo not given)	8.47	–
N=C(N)c1cccc(Oc2ccc(F)cc2NC(=O)c2ccc(-c3ccccc3S(N)(=O)=O)cc2)c1	8.35	–
N=C(N)c1cccc(OCCN(Cc2ccccc2)C(=O)c2ccc(-c3ccccc3S(N)(=O)=O)cc2)c1	7.85	–
CC(COc1cccc(C(=N)N)c1)NC(=O)c1ccc(-c2ccccc2S(N)(=O)=O)cc1 (stereo not given)	7.80	–
Nc1nccc2ccc(Oc3ccccc3NC(=O)c3ccc(-c4ccccc4S(N)(=O)=O)cc3)cc12	6.19	–
N=C(N)c1cccc(Oc2ccccc2NC(=O)c2ccc(-c3ccccc3S(N)(=O)=O)cc2)c1	8.44	pIC50 [4]: < 3.74; pIC50 [5]: 6.60; pIC50 [6]: 4.37; inhibition in vivo at 2 mg/kg [7]: 41%; pIC50 [8]: 4.74; pIC50 [9]: < 4.96; pIC50 [10]: 6.01
N=C(N)c1cccc(OCCN(CC(=O)O)C(=O)c2ccc(-c3ccccc3S(N)(=O)=O)cc2)c1	7.47	–
N=C(N)c1cccc(Oc2ccc(Cl)cc2C(=O)Nc2ccc(-c3ccccc3S(N)(=O)=O)cc2)c1	8.11	–
CN(C)c1ccc(C(=O)Nc2ccc(-c3ccccc3S(N)(=O)=O)cc2)c(Oc2cccc(C(=N)N)c2)c1	7.80	–
CS(=O)(=O)Nc1ccc(Oc2cccc(C(=N)N)c2)c(C(=O)Nc2ccc(-c3ccccc3S(N)(=O)=O)cc2)c1	8.27	–
N=C(N)c1cccc(Oc2ccc(C(=O)O)cc2NC(=O)c2ccc(-c3ccccc3S(N)(=O)=O)cc2)c1	–	bioavailability [3]: 5.5%
COC(=O)c1ccc(Oc2cccc(C(=N)N)c2)c(NC(=O)c2ccc(-c3ccccc3S(N)(=O)=O)cc2)c1	8.60	–
N=C(N)c1cccc(Oc2ccc([N+](=O)[O-])cc2C(=O)Nc2ccc(-c3ccccc3S(N)(=O)=O)cc2)c1	–	pIC50 [11]: 8.72
N=C(N)c1cccc(Oc2ccc(Br)cc2NC(=O)c2ccc(-c3ccccc3S(N)(=O)=O)cc2)c1	8.80	–
N=C(N)c1cccc(OCCN(Cc2cccnc2)C(=O)c2ccc(-c3ccccc3S(N)(=O)=O)cc2)c1	7.96	–
N=C(N)c1cccc(OCCNC(=O)c2ccc(-c3ccccc3S(N)(=O)=O)cc2)c1	8.12	pIC50 [4]: 5.43; pIC50 [5]: 5.68; pIC50 [6]: 4.89; pIC50 [8]: 3.96; pIC50 [9]: 3.49; pIC50 [10]: 5.92
Nc1nccc2ccc(Oc3ccc(F)cc3NC(=O)c3ccc(-c4ccccc4S(N)(=O)=O)cc3)cc12	5.88	–
CC(=O)Nc1ccc(C(=O)Nc2ccc(-c3ccccc3S(N)(=O)=O)cc2)c(Oc2cccc(C(=N)N)c2)c1	7.21	–
CNc1ccc(C(=O)Nc2ccc(-c3ccccc3S(N)(=O)=O)cc2)c(Oc2cccc(C(=N)N)c2)c1	7.92	–
CS(=O)(=O)c1ccc(Oc2ccc3ccnc(N)c3c2)c(NC(=O)c2ccc(-c3ccccc3S(N)(=O)=O)cc2)c1	5.22	–
Nc1nccc2ccc(OCC(Cc3ccccc3)N3Cc4cc(-c5ccccc5S(N)(=O)=O)ccc4C3=O)cc12 (stereo not given)	6.65	–

— ChEMBL document CHEMBL1135152, “Design, synthesis, and SAR of monobenzamidines and aminoisoquinolines as factor Xa inhibitors” (Bioorg Med Chem Lett, 2002)
